Test results taken from US6664406B1, “Nervonic acid derivatives, their preparation and use” (Croda International PLC, priority 1999, dated 2003).
Read-outs that look alike come from different tables or passages of the source.

Columns and labels:
[1] = Nervonic acid composition of total polar lipid from mouse brain (Example 9); type: in vivo; details: CREAE-inoculated mice
Experimental: (§1) Upon termination of certain biological evaluations, rat or mice brains were extracted and the fatty acid composition of total polar lipids from rat/mouse brain was determined.
(§2) Biological material was sent for analysis to Dr J. Hendersen at the University of Stirling, Institute of Aquaculture, Scotland. Analyses were carried out on two batches of experiments (detailed respectively in Example 6 and Example 7).

[2] = Miscibility / physical state of oral compositions in vehicle; type: physicochemical; details: room temperature (about 20° C.)
From the text: Formulations of the present invention suitable for oral administration may be in the form of discrete units such as capsules, cachets, tablets or lozenges, each containing a predetermined amount of the active ingredient; in the form of a powder or granules; in the form of a solution or a suspension in an aqueous liquid or non-aqueous liquid; or in the form of an oil-in-water emulsion or a water-in-oil emulsion. The active ingredient may also be in the form of a bolus, electuary or paste. For such formulations, a range of dilutions of the active ingredient in the vehicle is suitable, such as from 1% to 99%, preferably 5% to 50% and more preferably 10% to 25% dilution. Depending upon the level of dilution, the formulation will be either a liquid at room temperature (in the region of about 20° C.) or a low-melting solid.

[3] = system: CREAE in the Biozzi mouse model; test: NA:NA and NA:GLA in Miglyol 810 in CREAE (Example 8); type: in vivo
Experimental: (§3) Male Biozzi mice weighing 30-35 g were injected in each flank with 0.15 mL of an emulsion containing lyophilised mouse spinal cord, phosphate buffered saline and incomplete Freund's adjuvant supplemented with Mycobacterium butyricum and Mycobacterium tuberculosis H37Ra.
(§4) 1: Partial Flaccid Tail (PFT), 2: Complete Flaccid Tail (CFT), 3: Impaired Righting Reflex (IRR), 4: Ataxic Gait (AG), 5: Hind Limb Hypotonia (HLH), 6: Partial Hind Limb Paralysis (PHLP), 7: Complete Hind Limb Paralysis (CHLP), 8: Moribund (M), 9: Dead (D).
Therefore, Miglyol appeared well-suited for use as a vehicle in subsequent studies to determine the efficacy of compounds in CREAE. Therefore, using Miglyol 810 as the new vehicle, prophylactic effects of NA:NA and NA:GLA were re-assessed on CREAE in the Biozzi mouse model (90% dilution, 1000 mg/kg/day, up to 43 days PI).

[4] = system: chronic EAE in the Biozzi mouse model; test: NA:NA and NA:GLA in ethyl oleate in chronic relapsing EAE (Example 7); type: in vivo; details: for AG: Percentage of mice in the group / CFT: Percentage of mice in the group / CHLP: Percentage of mice in the group / HLH: Percentage of mice in the group / PFT: Percentage of mice in the group / PHLP: Percentage of mice in the group: ethyl oleate vehicle
Experimental: as §3, §4

[5] = Nervonic acid composition of total polar lipid from rat brain (Example 9); type: in vivo; details: after Example 6 treatments; NA:GLA at both low and high doses
Experimental: as §1, §2

[6] = system: neurological EAE in the Lewis rat; details: for Number diseased/total: 5 days prior to inoculation and 25 days PI
Experimental: Male Lewis rats, weighing 230-280 g on the day of inoculation, were injected in each rear footpad with 0.1 ml of an emulsion containing equal parts of guinea pig spinal cord; phosphate buffered saline (PBS) and incomplete Freund's adjuvant supplemented with 10 mg/ml Mycobacterium tuberculosis H37Ra.
Animals were weighed daily and assessed for neurological disease from day 7 post-inoculation (PI). Rats displaying symptoms of EAE were scored as follows: 1: flaccid tail (FT), 2: hind limb hypotonia (HLH), 3: partial hind limb paralysis (PHLP), 4: complete hind limb paralysis (CHLP), 5: moribund or dead.
NA:GLA (neat oil) was orally administered 5 days prior to inoculation and continued for 25 days PI, at a dose of 750 mg/kg body weight/day and 1000 mg/kg body weight/day. NA:DHA (neat oil) was given by an identical dosing regime at a dose of 500 mg/kg body weight/day. Control-sensitised animals received PBS vehicle or were undosed. Undosed, vehicle and low dose NA:GLA treatments contained 7 animals. Four rats received high dose NA:GLA and 3 rats were dosed with NA:DHA.

[7] = rats and mice, up to 10 g/kg; reported in WO 96/34846; cited from earlier work
[8] = acute phase, Miglyol 810 vehicle, 1000 mg/kg/day
[9] = acute phase, Miglyol 810 vehicle, n=12, NA:GLA n=11
[10] = relapse phase, Miglyol 810 vehicle, 1000 mg/kg/day
[11] = relapse phase, Miglyol 810 vehicle, NA:GLA n=9, NA:NA n=11
[12] = Biozzi mouse, 10% w/w in ethyl oleate, 1000 mg/kg body weight/day
[13] = acute phase, Biozzi mouse, 10% w/w in ethyl oleate, 1000 mg/kg body weight/day
[14] = relapse phase, Biozzi mouse, 10% w/w in ethyl oleate, 1000 mg/kg body weight/day

SMILES: CCCCC/C=C\C/C=C\C/C=C\CCCCC(=O)OCCCOC(=O)CCCCCCCCCCCCC/C=C\CCCCCCCC [NA:GLA, 1-(z-15-tetracosenoyloxy)-3-(z,z,z-6,9,12-octadecatrienoyloxy)propane]
- NA levels in mouse brain lipids compared to undosed and vehicle [1]: enhancement of the NA levels in brain lipids
- miscibility of compositions with vehicle [2]: miscible in all proportions at room temperature
- effect on the neurological course of CREAE ([3]; Biozzi mouse, Miglyol 810 vehicle, 1000 mg/kg/day): clearly reduced the intensity of neurological deficits during both acute and relapsing phases
- No. of diseased mice ([3]; acute phase, Biozzi mouse, Miglyol 810 vehicle (90% dilution), 1000 mg/kg/day, up to 43 days PI): 10/11
- Mean day of symptom loss [3, 8]: 25.9 ± 2.0 days
- Mean day of symptom onset [3, 8]: 17.9 ± 2.6 days
- Mean duration of symptoms [3, 8]: 6.9 ± 3.0 days
- Number of dead mice [3, 8]: 1/11
- AG: Percentage of mice in the group [3, 9]: 73%
- CFT: Percentage of mice in the group [3, 9]: 82%
- CHLP: Percentage of mice in the group [3, 9]: 36%
- D (dead): Percentage of mice in the group [3, 9]: 9%
- HLH: Percentage of mice in the group [3, 9]: 73%
- IRR: Percentage of mice in the group [3, 9]: 82%
- M (moribund): Percentage of mice in the group [3, 9]: 0%
- PFT: Percentage of mice in the group [3, 9]: 91%
- PHLP: Percentage of mice in the group [3, 9]: 46%
- D (dead): Percentage of mice in the group ([3]; mouse, in vivo): 22%
- M (moribund): Percentage of mice in the group ([3]; mouse, in vivo): 11%
- Mean day of symptom loss [3, 10]: 39.8 ± 5.0 days
- Mean day of symptom onset [3, 10]: 33.1 ± 4.9 days
- Mean duration of symptoms [3, 10]: 7.0 ± 4.2 days
- No. of diseased mice [3, 10]: 8/9
- Number of dead mice [3, 10]: 3/9
- AG: Percentage of mice in the group [3, 11]: 56%
- CFT: Percentage of mice in the group [3, 11]: 67%
- CHLP: Percentage of mice in the group [3, 11]: 44%
- HLH: Percentage of mice in the group [3, 11]: 56%
- IRR: Percentage of mice in the group [3, 11]: 67%
- PFT: Percentage of mice in the group [3, 11]: 89%
- PHLP: Percentage of mice in the group [3, 11]: 56%
- Acute and relapse symptoms (mean neurological scores) [4, 12]: markedly reduced
- onset of relapse [4, 12]: delayed, but not significantly
- Mean day of symptom loss [4, 13]: 30.0 ± 1.4 days
- Mean day of symptom onset [4, 13]: 21.7 ± 4.2 days
- Mean duration of symptoms [4, 13]: 5.7 ± 1.5 days
- Number of dead mice [4, 13]: 0/10
- No. of diseased mice ([4]; acute phase, Biozzi mouse, […], oral 1000 mg/kg body weight/day, 5 days prior to inoculation and 43 days PI, n=10): 3/10
- AG: Percentage of mice in the group ([4]; acute phase, n=10): 20%
- CFT: Percentage of mice in the group ([4]; acute phase, n=10): 20%
- CHLP: Percentage of mice in the group ([4]; acute phase, n=10): 20%
- HLH: Percentage of mice in the group ([4]; acute phase, n=10): 30%
- PFT: Percentage of mice in the group ([4]; acute phase, n=10): 20%
- PHLP: Percentage of mice in the group ([4]; acute phase, n=10): 20%
- Mean day of symptom onset [4, 14]: 42.0 ± 1.0 days
- No. of diseased mice [4, 14]: 3/10
- Number of dead mice [4, 14]: 0/10
- AG: Percentage of mice in the group ([4]; relapse phase, n=10): 10%
- CFT: Percentage of mice in the group ([4]; relapse phase, n=10): 10%
- CHLP: Percentage of mice in the group ([4]; relapse phase, n=10): 0%
- HLH: Percentage of mice in the group ([4]; relapse phase, n=10): 30%
- PFT: Percentage of mice in the group ([4]; relapse phase, n=10): 10%
- PHLP: Percentage of mice in the group ([4]; relapse phase, n=10): 0%
- NA levels in rat brain lipids compared to normal, undosed and vehicle treated animals [5]: marked increase of NA levels
- CHLP: Number of animals showing symptoms/total ([6]; 750 mg/kg/day): 3/7
- FT: Number of animals showing symptoms/total ([6]; 750 mg/kg/day): 7/7
- HLH: Number of animals showing symptoms/total ([6]; 750 mg/kg/day): 7/7
- PHLP: Number of animals showing symptoms/total ([6]; 750 mg/kg/day): 4/7
- CHLP: Number of animals showing symptoms/total ([6]; 1000 mg/kg/day): 1/4
- FT: Number of animals showing symptoms/total ([6]; 1000 mg/kg/day): 4/4
- HLH: Number of animals showing symptoms/total ([6]; 1000 mg/kg/day): 4/4
- PHLP: Number of animals showing symptoms/total ([6]; 1000 mg/kg/day): 2/4
- effect on onset, incidence and severity of disease ([6]; 750 and 1000 mg/Kg body weight/day, compared to control groups): delayed the onset and clearly reduced the incidence and severity of disease
- animals that experienced CHLP ([6]; high dose): 25%
- animals that experienced PHLP ([6]; high dose): 50%
- mean cumulative clinical scores ([6]; low and high dose (750 and 1000 mg/kg/day)): consistently lower than control values
- animals that experienced CHLP ([6]; low dose): 43%
- animals that experienced PHLP ([6]; low dose): 57%
- Mean day of final symptom loss (±SD) ([6]; neat oil oral 750 mg/kg/day): 19.0 ± 0.8 days
- Mean day of symptom onset (±SD) ([6]; neat oil oral 750 mg/kg/day): 11.3 ± 0.8 days
- Number of dead/total ([6]; neat oil oral 750 mg/kg/day): 0/7
- Number diseased/total ([6]; neat oil oral 750 mg/kg/day): 7/7
- Mean day of final symptom loss (±SD) ([6]; neat oil oral 1000 mg/kg/day): 18.8 ± 1.3 days
- Mean day of symptom onset (±SD) ([6]; neat oil oral 1000 mg/kg/day): 11.3 ± 0.5 days
- Number of dead/total ([6]; neat oil oral 1000 mg/kg/day): 0/4
- Number diseased/total ([6]; neat oil oral 1000 mg/kg/day): 4/4

SMILES: CCCCC/C=C\C/C=C\C/C=C\CCCCC(=O)OCCCOC(=O)CCCC/C=C\C/C=C\C/C=C\CCCCC [GLA:GLA, 1,3-Di(z,z,z-6,9,12-Octadecatrienoyloxy)propane]
- evidence of diarrhea (absence of toxicity) [7]: without evidence of diarrhea
